The numbers were not newly measured in US20140350097A1, “TREATMENT OF HYPOTENSION ASSOCIATED WITH HEMODIALYSIS” (priority 2013, published 2014), which cites them from elsewhere.

The test system of data set [1] is LPS-induced hypotension in animals. The note with it: intravenous injection; cited from earlier work.
Data set [2] relates to normal animals and animals with hypotensive shock. The note with it: cited from earlier work.

For the compound `CNC(=N)NCCC[C@H](N)C(=O)O` [N-monomethyl-L-arginine, N^G-monomethyl-L-arginine], the “effect on LPS-induced hypotension” value in data set [1] was “reverse LPS-induced hypotension”. Further, the “effect on blood pressure” value in data set [2] is listed as “can cause hypertension”.
